The results in this text go back to ChEMBL document CHEMBL5252509, “In depth analysis of kinase cross screening data to identify chemical starting points for inhibition of the Nek family of kinases” (Medchemcomm, 2018).

Assay [1] has as its target T1, Serine/threonine-protein kinase Nek2 (Homo sapiens) (UniProt P51955).
T1 sequence (whole entry): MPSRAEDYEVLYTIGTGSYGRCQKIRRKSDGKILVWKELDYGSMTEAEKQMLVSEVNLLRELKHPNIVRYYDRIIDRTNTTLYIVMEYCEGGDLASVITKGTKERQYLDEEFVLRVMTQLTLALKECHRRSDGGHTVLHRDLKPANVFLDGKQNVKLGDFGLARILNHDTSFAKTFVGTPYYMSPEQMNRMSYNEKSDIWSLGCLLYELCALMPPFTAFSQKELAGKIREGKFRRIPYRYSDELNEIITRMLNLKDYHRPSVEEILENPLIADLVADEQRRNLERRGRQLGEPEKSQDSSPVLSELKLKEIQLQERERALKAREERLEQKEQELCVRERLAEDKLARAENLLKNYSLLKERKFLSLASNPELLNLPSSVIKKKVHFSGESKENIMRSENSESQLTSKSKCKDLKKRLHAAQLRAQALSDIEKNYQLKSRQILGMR
In words: Inhibition of NEK2 (unknown origin) at 1 uM relative to control.

Assay [2] has as its target T2, Serine/threonine-protein kinase Nek3 (Homo sapiens) (UniProt P51956).
T2 sequence (whole entry): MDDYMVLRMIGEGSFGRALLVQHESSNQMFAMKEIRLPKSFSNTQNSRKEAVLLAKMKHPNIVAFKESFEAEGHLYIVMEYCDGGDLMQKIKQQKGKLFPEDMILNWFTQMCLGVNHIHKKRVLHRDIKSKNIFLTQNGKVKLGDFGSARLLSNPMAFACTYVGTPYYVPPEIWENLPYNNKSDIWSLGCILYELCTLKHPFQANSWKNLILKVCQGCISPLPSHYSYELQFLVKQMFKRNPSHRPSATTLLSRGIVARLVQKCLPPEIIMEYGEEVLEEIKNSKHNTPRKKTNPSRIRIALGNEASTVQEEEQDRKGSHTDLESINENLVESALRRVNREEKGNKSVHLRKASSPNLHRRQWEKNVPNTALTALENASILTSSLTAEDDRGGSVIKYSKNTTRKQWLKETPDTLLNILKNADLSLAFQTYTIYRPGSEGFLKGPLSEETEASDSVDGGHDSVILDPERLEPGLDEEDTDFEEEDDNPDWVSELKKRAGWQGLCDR
In words: Inhibition of NEK3 (unknown origin) at 1 uM relative to control.

Assay [3] deals with T3, Serine/threonine-protein kinase Nek5 (Homo sapiens) (UniProt Q6P3R8).
T3 sequence (whole entry): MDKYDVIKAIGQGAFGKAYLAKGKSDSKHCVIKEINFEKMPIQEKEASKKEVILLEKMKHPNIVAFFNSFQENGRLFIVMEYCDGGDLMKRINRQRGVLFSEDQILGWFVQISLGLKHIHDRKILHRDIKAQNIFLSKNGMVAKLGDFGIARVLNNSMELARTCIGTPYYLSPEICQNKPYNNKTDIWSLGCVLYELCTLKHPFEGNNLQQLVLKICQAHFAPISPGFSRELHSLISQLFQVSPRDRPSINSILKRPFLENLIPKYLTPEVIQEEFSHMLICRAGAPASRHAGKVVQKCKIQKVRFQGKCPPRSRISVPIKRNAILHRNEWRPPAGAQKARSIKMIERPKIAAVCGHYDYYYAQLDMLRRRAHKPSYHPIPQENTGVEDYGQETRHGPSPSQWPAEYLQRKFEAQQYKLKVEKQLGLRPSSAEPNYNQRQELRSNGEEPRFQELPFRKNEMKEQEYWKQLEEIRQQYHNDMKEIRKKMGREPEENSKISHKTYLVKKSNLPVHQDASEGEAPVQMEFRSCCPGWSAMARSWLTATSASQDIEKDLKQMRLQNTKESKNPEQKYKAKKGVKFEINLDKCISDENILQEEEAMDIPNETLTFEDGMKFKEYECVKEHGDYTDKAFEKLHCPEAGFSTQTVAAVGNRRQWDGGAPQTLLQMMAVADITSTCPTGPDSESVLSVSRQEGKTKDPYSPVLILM
The assay can be described thus: Inhibition of NEK5 (unknown origin) at 1 uM relative to control.

The target of assay [4] is Serine/threonine-protein kinase Nek6 (Homo sapiens) (UniProt Q9HC98). The assay can be described thus: Inhibition of NEK6 (unknown origin) at 1 uM relative to control.
Serine/threonine-protein kinase Nek6 (Homo sapiens), sequence (Q9HC98 whole entry): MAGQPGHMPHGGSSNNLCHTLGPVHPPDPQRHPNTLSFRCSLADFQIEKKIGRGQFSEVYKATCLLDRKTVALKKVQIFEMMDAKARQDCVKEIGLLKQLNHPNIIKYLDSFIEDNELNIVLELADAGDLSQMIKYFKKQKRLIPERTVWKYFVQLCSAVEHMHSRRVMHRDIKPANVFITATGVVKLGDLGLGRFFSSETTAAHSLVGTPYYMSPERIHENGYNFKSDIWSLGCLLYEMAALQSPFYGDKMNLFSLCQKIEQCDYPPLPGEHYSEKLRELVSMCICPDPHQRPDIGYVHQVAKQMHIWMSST
Assay [5] concerns the target Serine/threonine-protein kinase Nek7 (Homo sapiens) (UniProt Q8TDX7). The assay can be described thus: Inhibition of NEK7 (unknown origin) at 1 uM relative to control.
Assay [6] deals with T4, Serine/threonine-protein kinase Nek11 (Homo sapiens) (UniProt Q8NG66).
T4 sequence (whole entry): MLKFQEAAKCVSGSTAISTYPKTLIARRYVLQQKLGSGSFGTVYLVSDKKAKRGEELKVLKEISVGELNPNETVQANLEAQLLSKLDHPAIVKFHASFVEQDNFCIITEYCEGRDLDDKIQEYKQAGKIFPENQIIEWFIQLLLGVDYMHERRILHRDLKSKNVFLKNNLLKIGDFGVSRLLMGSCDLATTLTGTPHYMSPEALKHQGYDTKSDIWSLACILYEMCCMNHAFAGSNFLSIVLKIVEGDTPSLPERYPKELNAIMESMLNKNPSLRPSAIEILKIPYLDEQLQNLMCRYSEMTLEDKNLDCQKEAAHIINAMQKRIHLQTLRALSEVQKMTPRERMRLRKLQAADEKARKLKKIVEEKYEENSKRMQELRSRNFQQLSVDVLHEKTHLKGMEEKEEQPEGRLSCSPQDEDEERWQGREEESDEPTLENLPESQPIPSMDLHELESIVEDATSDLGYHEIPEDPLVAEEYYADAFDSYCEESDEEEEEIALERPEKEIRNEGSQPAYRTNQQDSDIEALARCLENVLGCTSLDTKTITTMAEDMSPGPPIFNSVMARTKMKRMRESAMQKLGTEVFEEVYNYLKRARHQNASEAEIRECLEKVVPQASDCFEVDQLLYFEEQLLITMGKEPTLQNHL
The assay can be described thus: Inhibition of NEK11 (unknown origin) at 1 uM relative to control.

Serine/threonine-protein kinase Nek7 (Homo sapiens), sequence (Q8TDX7 whole entry, looked up): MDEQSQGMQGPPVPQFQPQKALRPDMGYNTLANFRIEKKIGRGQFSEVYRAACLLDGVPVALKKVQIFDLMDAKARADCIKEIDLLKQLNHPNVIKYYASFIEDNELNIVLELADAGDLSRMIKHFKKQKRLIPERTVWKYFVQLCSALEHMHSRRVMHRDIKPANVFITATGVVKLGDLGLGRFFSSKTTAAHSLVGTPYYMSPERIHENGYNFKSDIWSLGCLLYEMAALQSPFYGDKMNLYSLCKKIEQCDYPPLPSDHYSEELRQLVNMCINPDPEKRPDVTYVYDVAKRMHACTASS

With `Cc1ccc(CC(=O)N2CCc3cc(-c4cn(C)c5ncnc(N)c45)ccc32)cc1`, the inhibition in assay [1] came to 96.9%; in assay [2] it was 7%; in assay [3] it was 45%; in assay [4] it was 19%; in assay [5] it was 0%; in assay [6], 59%.

Regarding `O=c1[nH]ccc2nc(N[C@@H]3CCCNC3)nc(Nc3ccc(S(=O)(=O)N4CCOCC4)cc3)c12`, the inhibition worked out at 20% in assay [1]; 11% in assay [2]; 49% in assay [3]; 54% in assay [4]; 65% in assay [5]; 100% in assay [6].

As to `CC(C)Oc1ccc2c(-c3ccnc(Nc4ccc(N5CCN(C)CC5)cc4)n3)cnn2n1`, the inhibition in assay [1] stood at 6.7%; in assay [2], 1.5%; in assay [3], 0%; in assay [4], 6.3%; in assay [5], 7.4%; in assay [6], 14%.

Regarding `Nc1ncc(-c2cn[nH]c2)c2scc(-c3ccc4c(c3)CCN4C(=O)Cc3ccccc3)c12`, the inhibition in assay [1] is 85%; in assay [2], 0%; in assay [3], 21%; in assay [4], 3%; in assay [5], 0%; in assay [6] it was 87%.

`COc1ccc(Nc2ncc(C#N)c(Nc3ccccc3C(N)=O)n2)cc1N1CCN(C)CC1`: the inhibition in assay [1] was determined as 0.4%; in assay [2], 6.5%; in assay [3] it was 0%; in assay [4] it was 0.1%; in assay [5] it was 2.6%; in assay [6], 2.5%.

As for `c1ccc(-c2ccnc3[nH]ccc23)cc1`, the inhibition in assay [1] was 74%; in assay [2], 19%; in assay [3], 8%; in assay [4] it was 0%; in assay [5], 0%; in assay [6], 0%.

On to `CN(C)CCNS(=O)(=O)c1ccc(-c2ccnc3[nH]ccc23)cc1`, for which the inhibition stood at 0% in assay [1]; 0% in assay [2]; 1% in assay [3]; 1% in assay [4]; 0% in assay [5]; 0% in assay [6].

Turning to `Nc1ncc(-c2cccnc2)c2scc(-c3ccc4c(c3)CCN4C(=O)Cc3ccccc3)c12`, the inhibition in assay [1] worked out at 70%; in assay [2], 1%; in assay [3], 22%; in assay [4], 8%; in assay [5] it was 19%; in assay [6] it was 44%.

Turning to `CS(=O)(=O)Nc1ccc(-c2ccnc3[nH]ccc23)cc1`, the inhibition in assay [1] worked out at 0%; in assay [2], 4%; in assay [3], 2%; in assay [4], 0%; in assay [5] it was 10%; in assay [6], 17%.

Turning to `NCCNS(=O)(=O)c1ccc(-c2ccnc3[nH]ccc23)cc1`, the inhibition was determined as 0% in assay [1]; 14% in assay [2]; 44% in assay [3]; 4% in assay [4]; 0% in assay [5]; 24% in assay [6].

Consider `COc1cccc(C2=C(Nc3cccc(O)c3)C(=O)NC2=O)c1`, for which the inhibition in assay [1] was found to be 0%; in assay [2], 19%; in assay [3], 2%; in assay [4], 0%; in assay [5], 7%; in assay [6] it was 0%.

As to `O=S(=O)(c1ccc(-c2ccnc3[nH]ccc23)cc1)N1CCCC1`, the inhibition in assay [1] is 16%; in assay [2] it was 16%; in assay [3] it was 31%; in assay [4] it was 0%; in assay [5], 20%; in assay [6], 0%.

For the compound `Cn1cc(-c2ccc3c(c2)CCN3C(=O)Cc2cccc(F)c2)c2c(N)ncnc21`, the inhibition was determined as 73% in assay [1]; 11% in assay [2]; 28% in assay [3]; 0% in assay [4]; 0% in assay [5]; 8% in assay [6].

Regarding `Cn1cc(-c2ccc3c(c2)CCN3C(=O)Cc2ccccc2Cl)c2c(N)ncnc21`, the inhibition in assay [1] was 79%; in assay [2] it was 0%; in assay [3] it was 7%; in assay [4], 3%; in assay [5] it was 17%; in assay [6] it was 0%.

As for `Cn1cc(-c2ccc3c(c2)CCN3C(=O)Cc2cccc(Cl)c2)c2c(N)ncnc21`, the inhibition in assay [1] turned out to be 66%; in assay [2], 1%; in assay [3], 32%; in assay [4], 11%; in assay [5], 0%; in assay [6], 0%.

`CC(C)c1nc(-c2cccc(NS(=O)(=O)c3c(F)cccc3F)c2F)c(-c2ccnc(Nc3ccc(N4CCOCC4)nc3)n2)s1`: the inhibition in assay [1] was determined as 0.9%; in assay [2], 99%; in assay [3] it was 24%; in assay [4], 0.9%; in assay [5] it was 7.1%; in assay [6], 1.4%.

On to `COc1cccc(C2=C(Nc3cccc(Cl)c3)C(=O)NC2=O)c1`, for which the inhibition in assay [1] was determined as 13%; in assay [2] it was 5%; in assay [3], 0%; in assay [4], 0%; in assay [5], 5%; in assay [6] it was 0%.

Consider `O=C1NC(=O)C(c2ccccc2Cl)=C1Nc1cccc(Cl)c1`, for which the inhibition in assay [1] worked out at 10%; in assay [2] it was 56%; in assay [3], 7%; in assay [4] it was 1%; in assay [5], 16%; in assay [6], 0%.

With `Cn1cc(-c2ccc3c(c2)CCN3C(=O)Cc2cccc(C(F)(F)F)c2)c2c(N)ncnc21`, the inhibition stood at 15% in assay [1]; 0% in assay [2]; 0% in assay [3]; 0% in assay [4]; 11% in assay [5]; 14% in assay [6].

By inhibition is commonly meant the relative decrease from the control value, in per cent. A low value points to little suppression.
